# Data published in US12134620B2 (ARAXES PHARMA LLC, priority 2018, dated 2024).
# Target: T1, KRAS G12C 1-169, his-tagged protein, GDP-loaded (Homo sapiens, UniProt P01116, G12C)
# T1 construct: KRAS G12C 1-169, his-tagged protein, GDP-loaded; His tag
# Assay: Biochemical assay: covalent modification of KRAS G12C, analysed by mass spectrometry (RapidFire/TOF or Q-Exactive)
# Type: binding
# Conditions: Modification activity, modification percentage from MS peak intensities
# Protocol: Test compounds are prepared as 10 mM stock solutions in DMSO (Fisher cat. #BP-231-100). KRAS G12C 1-169, his-tagged protein, GDP-loaded is diluted to 2 μM or 0.5 μM in buffer (20 mM Hepes, 150 mM NaCl, 1 mM MgCl2). Compounds are tested for activity as follows:
# Compounds are diluted to 50× final test concentration in DMSO in 96-well storage plates. Compound stock solutions are vortexed before use and observed carefully for any sign of precipitation. Dilutions are as follow: • For 32 μM final compound concentration, compounds are diluted to 1600 μM (3 μL 10 mM compound stock+15.75 μL DMSO and mixed well by pipetting. • For 8 μM final compound concentration, compounds are diluted to 400 μM (2 μL 10 mM compound stock+48 μL DMSO) and mixed well by pipetting. 49 μL of the stock protein solution is added to each well of a 96-well PCR plate (Fisher cat #1423027). 1 μl of the diluted 50× compounds are added to appropriate wells in the PCR plate using 12-channel pipettor. Reactions are mixed carefully and thoroughly by pipetting up/down with a 200 μL multi-channel pipettor. The plate is sealed well with aluminum plate seal, and protein and compound are allowed to react for a desired amount of time. 5 μL of 2% formic acid (Fisher cat #A117) in de-ionized H2O is then added to each well followed by mixing with a pipette to quench the reaction. The plate is then resealed with aluminum seal and stored frozen on dry ice until analyzed as described below.
# The above described assays are analyzed by mass spectrometry according to one of the following two procedures:
# The MS instrument is set to positive polarity, 2 GHz resolution, and low mass (1700) mode and allowed to equilibrate for 30 minutes. The instrument is then calibrated, switched to acquisition mode and the appropriate method loaded.
# After another 30 minute equilibration time, a blank batch (i.e., buffer) is run to ensure equipment is operating properly. The samples are thawed at 37° C. for 10 minutes, briefly centrifuged, and transfer to the bench top. Wells A1 and H12 are spiked with 1 μL 500 μM internal standard peptide, and the plates centrifuged at 2000×g for 5 minutes. The method is then run and masses of each individual well recorded.
# The masses (for which integration data is desired) for each well are pasted into the platemap and exported from the analysis. Masses for the internal standards are exported as well. The data at 50 ppm is extracted for the +19 charge state, and identity of well A1 is assigned using the internal standard spike and integrated. Peak data is exported as a TOF list and the above steps are repeated individually, for the +20, +21, +22, +23, +24, and +25 charge states.
# The masses and peak intensities of KRAS G12C protein species are measured using a Dionex RSLCnano system (Thermo Scientific) connected to a Q Exactive Plus mass spectrometer (Thermo Scientific).
# 20 μL of sample is each loaded onto a Aeris™ 3.6 μm WIDEPORE C4 200 Å, LC Column 50×2.1 mm column maintained at 40° C. at a flow rate of 600 μL/min with 80% Solvent A (0.1% formic acid in H2O) and 20% Solvent B (0.1% formic acid in acetonitrile). The liquid chromatography conditions are 20% solvent B for 1 minute, 20% to 60% solvent B for 1.5 minutes, 60% to 90% solvent for 0.5 minute, 90% solvent B for 0.2 minute, 90% to 20% solvent B for 0.2 minute, and then equilibrated for 1.6 minute before the following sample injection. The flow rate is maintained at 600 μL/min throughout the sample analysis.
# The mass spectrometer is operated in profile mode at a resolution of 17500, 5 microscans, using 50 msec max injection time and an AGC target of 1×10^6, and a full mass range from 800-1850 m/z is recorded. The intact protein mode is applied for optimal ion transfer and maximum sensitivity. The ionization method is electrospray ionization, which used a spray voltage of 4 kV, sheath gas flow set to 50 AU, auxiliary gas flow set to 10 AU and sweep gas flow set to 1 AU. […]
row,SMILES,Binding %
1,"C=CC(=O)N1CC2(CCN(c3nc(OC[C@@H]4CCCN4C)nc(-c4cnn(CCO)c4)c3C#N)C2)C1 [Compound I-35, (S)-4-(2-acryloyl-2,6-diazaspiro[3.4]octan-6-yl)-6-(1-(2-hydroxyethyl)-1H-pyrazol-4-yl)-2-((1-methylpyrrolidin-2-yl)methoxy)pyrimidine-5-carbonitrile]",+ (+ indicates binding activity greater than 0% and up to 50%)
2,"C=CC(=O)N1CC2(CCN(c3nc(N4CCC(F)(F)C4)nc(-c4c(C)ccc5[nH]ncc45)c3C#N)C2)C1 [Compound I-27, 4-(2-acryloyl-2,6-diazaspiro[3.4]octan-6-yl)-2-(3,3-difluoropyrrolidin-1-yl)-6-(5-methyl-1H-indazol-4-yl)pyrimidine-5-carbonitrile]",+++ (+++ indicates binding activity greater than 85%)
3,"C=CC(=O)N1CC2(CCN(c3nc(OC[C@@H]4CN(C)CCO4)nc(-c4c(C)ccc5[nH]ncc45)c3C#N)C2)C1 [Compound I-81, 4-(2-acryloyl-2,6-diazaspiro[3.4]octan-6-yl)-6-(5-methyl-1H-indazol-4-yl)-2-(((S)-4-methylmorpholin-2-yl)methoxy)pyrimidine-5-carbonitrile]",+++ (+++ indicates binding activity greater than 85%)
4,"C=CC(=O)N1CC2(CCN(c3ncnc(-c4c(C)ccc5[nH]ncc45)c3C#N)CC2)C1 [Compound I-236, 4-(2-acryloyl-2,7-diazaspiro[3.5]nonan-7-yl)-6-(5-methyl-1H-indazol-4-yl)pyrimidine-5-carbonitrile]",+ (+ indicates binding activity greater than 0% and up to 50%)
5,"C=CC(=O)N1CC2(CCN(c3cncc(-c4c(C)ccc5[nH]nc(N)c45)c3C#N)C2)C1 [Compound I-277, 3-(2-acryloyl-2,6-diazaspiro[3.4]octan-6-yl)-5-(3-amino-5-methyl-1H-indazol-4-yl)isonicotinonitrile]",++ (++ indicates binding activity from 50 to 85%)
6,"C=CC(=O)N1CC2(CCN(c3nc(N4CCC(N5CCN(C)CC5)CC4)nc(-c4c(C)ccc5cnn(C)c45)c3C#N)C2)C1 [Compound I-160, 4-(2-acryloyl-2,6-diazaspiro[3.4]octan-6-yl)-6-(1,6-dimethyl-1H-indazol-7-yl)-2-(4-(4-methylpiperazin-1-yl)piperidin-1-yl)pyrimidine-5-carbonitrile]",++ (++ indicates binding activity from 50 to 85%)
7,"C/C=C/C(=O)N1CC2(CCN(c3nc(N4CCOCC4)nc(-c4c(C)ccc5[nH]ncc45)c3C#N)C2)C1 [Compound I-83, (E)-4-(2-(but-2-enoyl)-2,6-diazaspiro[3.4]octan-6-yl)-6-(5-methyl-1H-indazol-4-yl)-2-morpholinopyrimidine-5-carbonitrile]",+ (+ indicates binding activity greater than 0% and up to 50%)
8,"C=CC(=O)N1CC2(CCN(c3nc(N4CCC(N5CCN(C)C6(CC6)C5)CC4)nc(-c4c(C)ccc5cnn(C)c45)c3C#N)C2)C1 [Compound I-197, 4-(2-acryloyl-2,6-diazaspiro[3.4]octan-6-yl)-6-(1,6-dimethyl-1H-indazol-7-yl)-2-(4-(4-methyl-4,7-diazaspiro[2.5]octan-7-yl)piperidin-1-yl)pyrimidine-5-carbonitrile]",+++ (+++ indicates binding activity greater than 85%)
9,"C=CC(=O)N1CC2(CCN(c3nc(N4CCN(C)CC4=O)nc(-c4c(C)ccc5[nH]ncc45)c3C#N)C2)C1 [Compound I-111, 4-(2-acryloyl-2,6-diazaspiro[3.4]octan-6-yl)-6-(5-methyl-1H-indazol-4-yl)-2-(4-methyl-2-oxopiperazin-1-yl)pyrimidine-5-carbonitrile]",+ (+ indicates binding activity greater than 0% and up to 50%)
10,"C=CC(=O)N1CC2(CCN(c3nc(NC(=O)c4ccccn4)nc(-c4c(C)ccc5[nH]ncc45)c3C#N)C2)C1 [Compound I-41, N-(4-(2-acryloyl-2,6-diazaspiro[3.4]octan-6-yl)-5-cyano-6-(5-methyl-1H-indazol-4-yl)pyrimidin-2-yl)picolinamide]",+++ (+++ indicates binding activity greater than 85%)
11,"C=CC(=O)N1CC2(CCN(c3nc(OCc4ncccn4)nc(-c4c(C)ccc5[nH]ncc45)c3C#N)C2)C1 [Compound I-154, 4-(2-acryloyl-2,6-diazaspiro[3.4]octan-6-yl)-6-(5-methyl-1H-indazol-4-yl)-2-(pyrimidin-2-ylmethoxy)pyrimidine-5-carbonitrile]",++ (++ indicates binding activity from 50 to 85%)
12,"C=CC(=O)N1CC2(CCN(c3c(OCCCN(C)C)ncc(-c4c(C)ccc5[nH]ncc45)c3C#N)C2)C1 [Compound I-218, 3-(2-acryloyl-2,6-diazaspiro[3.4]octan-6-yl)-2-(3-(dimethylamino)pro-poxy)-5-(5-methyl-1H-indazol-4-yl)isonicotinonitrile]",++ (++ indicates binding activity from 50 to 85%)
13,"Cc1ccc2[nH]ncc2c1-c1nc(OC[C@@H]2CCCN2C)nc(N2CCC3(CN(C(=O)/C=C/CN4CCC4)C3)C2)c1C#N [Compound I-205, 4-(2-((E)-4-(azetidin-1-yl)but-2-enoyl)-2,6-diazaspiro[3.4]octan-6-yl)-6-(5-methyl-1H-indazol-4-yl)-2-(((S)-1-methylpyrrolidin-2-yl)methoxy)pyrimidine-5-carbonitrile]",+ (+ indicates binding activity greater than 0% and up to 50%)
14,"C=CC(=O)N1CC2(CCN(c3nc(OCc4ccc(N5CCN(C)CC5)cn4)nc(-c4c(C)ccc5cnn(C)c45)c3C#N)C2)C1 [Compound I-186, 4-(2-acryloyl-2,6-diazaspiro[3.4]octan-6-yl)-6-(1,6-dimethyl-1H-indazol-7-yl)-2-((5-(4-methylpiperazin-1-yl)pyridin-2-yl)methoxy)pyrimidine-5-carbonitrile]",+ (+ indicates binding activity greater than 0% and up to 50%)
15,"C=CC(=O)N1CC2(CCN(c3nc(N4CCOCC4)nc(N4CC(O)Cc5ccccc54)c3C#N)C2)C1 (stereo not drawn) [Compound I-89, 4-(2-acryloyl-2,6-diazaspiro[3.4]octan-6-yl)-6-(3-hydroxy-3,4-dihydroquinolin-1(2H)-yl)-2-morpholinopyrimidine-5-carbonitrile]",+ (+ indicates binding activity greater than 0% and up to 50%)
16,"C=CC(=O)N1CC2(CCN(c3ncnc(-c4c(C)ccc5[nH]ncc45)n3)C2)C1 [Compound I-280, 1-(6-(4-(5-methyl-1H-indazol-4-yl)-1,3,5-triazin-2-yl)-2,6-diazaspiro[3.4]octan-2-yl)prop-2-en-1-one]",+ (+ indicates binding activity greater than 0% and up to 50%)
17,"C=CC(=O)N1CC2(CCN(c3ncnc(-c4c(C)ccc5cn[nH]c45)c3C#N)C2)C1 [Compound I-227, 4-(2-acryloyl-2,6-diazaspiro[3.4]octan-6-yl)-6-(6-methyl-1H-indazol-7-yl)pyrimidine-5-carbonitrile]",+ (+ indicates binding activity greater than 0% and up to 50%)
18,"C=CC(=O)N1CC2(CCN(c3nc(OC[C@@H]4CCCN4C)nc(-c4c(C)ccc5[nH]nc(N)c45)c3C#N)C2)C1 [Compound I-108, 4-(2-acryloyl-2,6-diazaspiro[3.4]octan-6-yl)-6-(3-amino-5-methyl-1H-indazol-4-yl)-2-(((S)-1-methylpyrrolidin-2-yl)methoxy)pyrimidine-5-carbonitrile]",++ (++ indicates binding activity from 50 to 85%)
